Entries after “also recorded” stand apart in the source; their conditions may differ. Read-outs that look alike come from different tables or passages of the source. * marks the point of attachment. Farnesyl = CC(C)=CCC/C(C)=C/CC/C(C)=C/C*
Legend:
[1] = target: T1, ROS methyltransferase (bovine retinal rod outer segment S-adenosyl-L-methionine-dependent methyltransferase) (Bos taurus, UniProt A0AAA9SD88); assay: ROS methyltransferase assay: compounds as substrates (Km) or inhibitors (Ki) of AFC methylation; format: biochemical; settings: for competitive inhibition of AFC methylation / substrate activity for ROS methyltransferase / inhibition of methyltransferase activity towards AFC: in words
T1 construct: utilizing ROS membranes as the source of methyltransferase enzyme; tissue Wanda Lawson Co., Lincoln, Nebr; (frozen bovine retinas); host or cells: bovine retinal rod outer segment (ROS) membranes
Experimental: Standard assays may be used to determine Km for substrates and Ki for inhibitors. […] The values of Ki and Km are calculated from kinetic assays by conventional means (Fersht, Enzyme Structure and Mechanism, W. H. Freeman and Co., New York, 1984). Examples are provided below to illustrate suitable assays, and are not intended to limit the invention.
One suitable assay of methylation functions uses bovine retinal rod outer segment (ROS) methyltransferase and a natural substrate, transducin. […] Another suitable assay uses N-acetyl-S-farnesylcysteine as a substrate for ROS methyltransferase.
The bovine retinal transducin γ subunit has a carboxyl-terminal --CAAX motif and undergoes a farnesylation reaction similar to that observed on ras (Lai et al., Proc. Natl. Acad. Sci. USA 87:7673, 1990; Fukada et al., Nature 346:658, 1990).
(§1) Frozen bovine retinas (Wanda Lawson Co., Lincoln, Nebr.) were used to prepare ROS membranes depleted of peripheral proteins using a modification of the procedure of Wessling-Resnick et al. (J. Biol. Chem. 262:3697, 1987). Briefly, ROS membranes were washed with low ionic strength buffer and 100μM GTP, resuspended in 50 mM Hepes-Na (pH 7.4), 100 mM NaCl, 5 mM MgCl2, 0.1 mM phenylmethylsulfonyl fluoride, 0.1 mM dithiothreitol (buffer A) and stored in small aliquots at -80° C. until used. Transducin was isolated by disrupting ROS membranes by passing the membranes through a narrow needle and washing the disrupted membranes in a series of centrifugation steps as described by Wessling-Resnick et al. (J. Biol. Chem. 262:3697, 1987). Finally transducin was eluted from the membranes with 100μM GTP. The transducin-enriched supernatant was concentrated using Centriprep (Amicon).
(§2) For initial studies, the reaction mixture contained 20 μCi of S-adenosyl-[methyl-^3 H] methionine ([^3 H]SAM) (2.34 μM, Amersham) and an aliquot of ROS (120μg of total protein) or of washed ROS membranes (80μg of total protein) in 100 μl of buffer A. Purified transducin was added to this mixture to a concentration of 5 μM. AFC, N-acetylcysteine, or AFC methylester was added in 2 μl of dimethyl sulfoxide to give a final concentration of 20 μM, and the reaction was carried out at 37° C.
The above-described methyltransferase assay was used to analyze the analogs described above.

HL-60 cells = assay: Inhibition of HL-60 cell proliferation (trypan blue dye exclusion count); format: cell-based; settings: FIG. 2; in words
Experimental: FTA, FTP, AFHC and AFC were tested for their ability to inhibit cell growth as follows.
HL-60 cells (ATCC CCL 240, American Type Culture Collection, Rockville, Md.) which harbor an activated ras gene were grown in RPMI medium (Gibco/BRL, Bethesda, Md.) supplemented with 10-15% fetal calf serum, L-glutamine, penicillin and streptomycin. These cells were treated with various concentrations of FTA, FTP, AFHC, or AFC dissolved in dimethyl sulfoxide (DMSO) or with DMSO only (In all experiments the final DMSO concentration was 1% or less). Treated ans untreated cells were incubated under standard culture conditions for several days. Cells were counted manually at 24 hour intervals using a trypan blue dye exclusion assay which counts only live, intact cells.

cell growth = settings: Maltese et al., 1985; cited from earlier work
ras proteins = settings: Hancock et al., 1989; cited from earlier work
[2] = system: cellular synthesis of mevalonic acid; settings: in words; cited from earlier work
[3] = target: T2, methyltransferase activity present in ROS membrane (Bos taurus, UniProt A0AAA9SD88); assay: In vitro [3H]SAM methylation of proteins by ROS membrane methyltransferase; format: biochemical, bovine; settings: in words
T2 construct: substrates transducin gamma, 23-29 kDa small G proteins, AFC
Experimental: as §1, §2
Incubation of bovine ROS with [^3 H]SAM results in the radioactive labeling of polypeptides with apparent molecular masses of 88, 60, 23-29, and 6 kDa. The methylation of the 88-kDa protein (α subunit of retinal phosphodiesterase) and of the 23- to 29-kDa polypeptides has already been reported (Swanson et al., J. Biol. Chem. 258:10599, 1983; Ota et al., J. Biol. Chem. 264:12879, 1989). The 6-kDa polypeptide coincides with Tγ in SDS/polyacrylamide gels. Moreover, incubation of purified transducin with extensively washed ROS and [^3 H]SAM results in the labeling of the 6-kDa polypeptide and the membrane-associated 23- to 29-kDa proteins. […]

[4] = system: methyltransferase activity in HL-60 cells; assay: Methylation of AFC by activity present in HL-60 cell membrane; format: biochemical
[5] = system: demethylase activity in ROS membranes; assay: Methylation exchange/demethylation of AFC methyl ester with ROS membranes; format: biochemical, bovine
Experimental: as §1, §2
To study the demethylation process directly, AFC[^3 H]methyl ester was incubated with ROS membranes in the presence of methylation inhibitors. […] Under similar conditions, demethylation of Tγ and the putative small G protein (23-29 kDa) was also observed.

HL-60 cell extracts = assay: Turnover of AFC methyl ester by HL-60 cell extracts; format: biochemical; settings: in words
transducin γ subunit = assay: In vitro carboxyl-methylation of transducin γ subunit in ROS; format: biochemical, bovine; settings: 10 μM; [3H]SAM 2.3 μM; densitometry of SDS gels
Text: We have identified an S-adenosyl-L-methionine-dependent methyltransferase activity in bovine retinal rod outer segments (ROS) which methylates the free carboxyl group of the farnesylated cysteine of bovine retinal transducin γ subunit. The bovine retinal transducin γ subunit has a carboxyl-terminal --CAAX motif and undergoes a farnesylation reaction similar to that observed on ras (Lai et al., Proc. Natl. Acad. Sci. USA 87:7673, 1990; Fukada et al., Nature 346:658, 1990). Bovine retinal rod outer segment S-adenosyl-L-methionine-dependent methyltransferase (ROS methyltransferase) provides a means by which to identify compounds capable of interfering with the methylation of proteins having a carboxyl-terminal --CAAX motif.
Frozen bovine retinas (Wanda Lawson Co., Lincoln, Nebr.) were used to prepare ROS membranes depleted of peripheral proteins using a modification of the procedure of Wessling-Resnick et al. (J. Biol. Chem. 262:3697, 1987). Briefly, ROS membranes were washed with low ionic strength buffer and 100μM GTP, resuspended in 50 mM Hepes-Na (pH 7.4), 100 mM NaCl, 5 mM MgCl2, 0.1 mM phenylmethylsulfonyl fluoride, 0.1 mM dithiothreitol (buffer A) and stored in small aliquots at -80° C. until used. […]

23 kDa ras protein = assay: [3H]SAM methylation of 23 kDa ras protein in disrupted HL-60 cells; format: biochemical; settings: 50 μM
Experimental: In an in vitro labelling reaction similar to that described above for ROS membranes, the 23 kDa ras protein was the principle protein methylated by [^3 H]SAM labelling of disrupted HL-60 cells. In this assay 50 μM FTA inhibited methylation of the 23 kDa protein by 61%.

[6] = system: methyltransferase present in HL-60 cell extracts; assay: Methylation of transducin γ subunit by HL-60 cell extract methyltransferase; format: biochemical; settings: in words
[7] = Table 1, conventional inhibitors, read-out: Ki
[8] = calculated, read-out: Ki for inhibition of AFC methylation
[9] = ROS membranes as source of enzyme, read-out: KM for methylation
[10] = Table 1, substrates, read-out: Km
[11] = [3H]SAM and washed ROS membranes

T1 sequence (A0AAA9SD88 1-284): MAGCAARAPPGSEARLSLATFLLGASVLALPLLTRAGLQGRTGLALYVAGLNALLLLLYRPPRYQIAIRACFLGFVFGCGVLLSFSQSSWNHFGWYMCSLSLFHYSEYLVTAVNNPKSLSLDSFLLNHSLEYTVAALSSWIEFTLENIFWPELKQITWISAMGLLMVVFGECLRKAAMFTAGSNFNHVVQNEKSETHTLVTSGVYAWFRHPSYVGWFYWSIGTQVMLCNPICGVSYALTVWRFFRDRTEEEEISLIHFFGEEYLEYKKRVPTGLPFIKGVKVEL
T2 sequence (A0AAA9SD88 1-284): as above

Molecule: CC(=O)N[C@@H](CCSC/C=C(\C)CC/C=C(\C)CCC=C(C)C)C(=O)O [AFHC, N-acetyl-S-farnesylhomocysteine]
- Ki [1, 7]: 36.3 µM
- Ki [1, 8]: 30.2 µM
- competitive inhibition of AFC methylation [1]: potent competitive inhibitors
- substrate activity for ROS methyltransferase [1]: not a substrate; also recorded: not substrates
- inhibition of proliferation of HL-60 cells (HL-60 cells): can inhibit proliferation

Molecule: CC[C@H](C)C(=O)O[C@H]1C[C@@H](C)C=C2C=C[C@H](C)[C@H](CC[C@@H]3C[C@@H](O)CC(=O)O3)[C@H]21 [Mevinolin]
- cell growth block (cell growth): blocked in cell growth in the G1 phase and the G2/M phase
- post-translational processing of ras proteins (ras proteins): affects
- ras membrane localization (ras proteins): interferes
- cellular synthesis of mevalonic acid [2]: inhibits

Molecule: Nc1ncnc2c1ncn2[C@@H]1O[C@H](C[C@@H](N)CC[C@H](N)C(=O)O)[C@@H](O)[C@H]1O [sinefungin, reference compound]
- inhibition of methyltransferase activity towards AFC [1]: inhibited
- inhibition of methyltransferase activity present in ROS membrane [3]: inhibited

Molecule: CC(=O)N[C@@H](CSC/C=C(\C)CC/C=C(\C)CCC=C(C)C)C(=O)O [AFC, N-acetyl-S-farnesylcysteine]
- Km [1, 9]: 23 µM
- Km [1, 10]: 23 µM
- substrate activity for ROS methyltransferase [1]: acts as a substrate; also recorded: serves as a substrate; also recorded: can serve as a substrate
- incorporation of label by [3H]SAM into proteins ([3]; ROS): reduced incorporation of label
- inhibition of proliferation of HL-60 cells (HL-60 cells): can inhibit proliferation
- methylation by activity in membrane of HL-60 cells ([4]; in words): can be methylated

Molecule: CC(C)=CCC/C(C)=C/CC/C(C)=C/CSCCC(=O)O [FTP, 3-farnesylthiopropionic acid]
- Km [1, 9]: 13.7 µM
- Km [1, 10]: 14 µM
- substrate activity for ROS methyltransferase [1]: active substrate; also recorded: also a substrate
- inhibition of proliferation of HL-60 cells (HL-60 cells): can inhibit proliferation

Molecule: COC(=O)[C@H](CSC/C=C(\C)CC/C=C(\C)CCC=C(C)C)NC(C)=O [AFC methyl ester]
- hydrolysis of methyl ester by demethylase activity ([5]; ROS membranes, in presence of methylation inhibitors): rapidly hydrolyzed
- duration of linear incorporation of radioactivity [5, 11]: at least 2 hr
- incorporation of radioactivity into AFC methyl ester [5, 11]: linear, time-dependent incorporation of radioactivity
- turnover by HL-60 cell extracts (HL-60 cell extracts): can be turned over

Molecule: CC(C)=CCC/C(C)=C/CC/C(C)=C/CSCC(=O)O [FTA, 2-farnesylthioacetic acid]
- Ki [1, 7]: 4.6 µM
- Ki [1, 8]: 4.6 µM
- competitive inhibition of AFC methylation [1]: potent competitive inhibitors
- substrate activity for ROS methyltransferase [1]: substrate activity was lost; also recorded: not substrates
- inhibition of in vitro carboxyl-methylation of transducin γ subunit (transducin γ subunit): 70%
- inhibition of proliferation of HL-60 cells (HL-60 cells): can inhibit proliferation
- inhibition of methylation of the 23 kDa protein (23 kDa ras protein): 61%
- inhibition of AFC methylation by HL-60 membrane activity ([4]; 10-fold excess of FTA): 90%

Molecule: CC(C)=CCC/C(C)=C/CC/C(C)=C/CSCC[N+](=O)[O-] [2-farnesylthio-1-nitroethane]
- status as conventional inhibitor (in place of Ki) ([1]; Table 1): inhibitor

Molecule: CC(C)=CCC/C(C)=C/CC/C(C)=C/C[Se]CCC(=O)O
- Ki [1]: 29 µM

Molecule: CC(=O)N[C@@H](CS)C(=O)O [N-acetylcysteine, reference compound]
- substrate activity for ROS methyltransferase [1]: not a substrate

Molecule: Nc1ncnc2c1ncn2[C@@H]1O[C@H](CSCC[C@H](N)C(=O)O)[C@@H](O)[C@H]1O [SAH, reference compound]
- inhibition of methyltransferase activity towards AFC [1]: inhibited
- inhibition of methyltransferase activity present in ROS membrane [3]: inhibited

Molecule: CC(C)=CCC/C(C)=C/CC/C(C)=C/CS/C=C/C(=O)O [3-farnesylthio-trans-acrylic acid]
- Ki [1, 7]: 37 µM

B1: γ subunit of transducin: γ subunit (Tγ) of retinal transducin, farnesylated at cysteine (protein, UniProt P02698 2-71, looked up)
Guanine nucleotide-binding …: PVINIEDLTEKDKLKMEVDQLKKEVTLERMLVSKCCEEFRDYVEERSGEDPLVKGIPEDKNPFKELKGGC(Farnesyl)
modifications: ends and bridges not checked
notes: γ subunit (Tγ) of retinal transducin, farnesylated at cysteine
- methylation by methyltransferase in HL-60 cell extracts [6]: can be methylated
